Laboratory results from publication PMC11013662, “New Thiosemicarbazide Derivatives with Multidirectional Biological Action” (Molecules, 2024).
Values after ≈ are worked out from the molar mass of the structure shown.

Legend:
Assay type in all cases: cell-based
[1] = test system: SW 620 human metastatic colon cancer cells; experiment: MTT cytotoxicity assay; conditions: for IC50: Homo sapiens, SW 620, MTT, 72 h; for SI (Selectivity Index): IC50 for normal cell line (V79)/IC50 cancer cell line (SW 620)
Protocol: Both lines were obtained from American Type Culture Collection (ATCC, Rockville, MD, USA). The culture used to grow the SW 620 cells was prepared in MEM (ThermoSci, Waltham, MA, USA). The V79 cells were cultured in RPMI (Biowest SAS, Nuaillé, France) with the addition of 20 mM HEPES (Biowest, Nuaillé, France), 10% fetal bovine serum (FBS, Sigma-Aldrich, St. Louis, MO, USA), 100 µg/mL of streptomycin, and 100 U/mL of penicillin (Gibco, Grand Island, NY, USA). […] The MTT assay was used to establish the cytotoxic activity of the studied compounds. […] The process starts with the preparation of 96-well plates by placing cells at a density of 1 × 10^4 per well and incubating them for 24 h to adhere. […] Next, cells were incubated for 72 h at 37 °C with a 5% CO2. Then, a solution of MTT (0.5 mg/mL) was added to each well and plates were incubated for 4 h more in the same conditions. To dissolve precipitated formazan crystals, a mixture of DMSO and isopropanol (in a 1:1 ratio, v/v) was used. […] Cell viability was determined as the percentage of MTT reduction in the treated cells compared to the control group (unexposed cells). The relative MTT level, represented as a percentage, was calculated using the formula [A]/[B] × 100, where [A] stands for the absorbance of the treated cell sample and [B] for the absorbance of unexposed to studied compounds sample (control group).

[2] = test system: V79 Chinese hamster lung cells; experiment: MTT cytotoxicity assay; conditions: Cricetulus griseus, V 79 normal cells, 72 h
Protocol: Both lines were obtained from American Type Culture Collection (ATCC, Rockville, MD, USA). The culture used to grow the SW 620 cells was prepared in MEM (ThermoSci, Waltham, MA, USA). The V79 cells were cultured in RPMI (Biowest SAS, Nuaillé, France) with the addition of 20 mM HEPES (Biowest, Nuaillé, France), 10% fetal bovine serum (FBS, Sigma-Aldrich, St. Louis, MO, USA), 100 µg/mL of streptomycin, and 100 U/mL of penicillin (Gibco, Grand Island, NY, USA). The eligible level of cells confluence was 80–90%, and both cell cultures were maintained in a humidified incubator set at 37 °C with 5% CO2 until they reached it.
The MTT assay was used to establish the cytotoxic activity of the studied compounds. The mechanism of this method relies on enzymatic conversion of 3-(4,5-dimethylthiazol-2-yl)-2,5-diphentyltetrazolium bromide salt (MTT) into insoluble formazan crystals by mitochondrial dehydrogenases within viable cells.
The process starts with the preparation of 96-well plates by placing cells at a density of 1 × 10^4 per well and incubating them for 24 h to adhere. Afterwards, the cells were treated with different concentrations of thiosemicarbazide derivatives, from 20 to 100 µM, except the control group which remained not exposed. Next, cells were incubated for 72 h at 37 °C with a 5% CO2. Then, a solution of MTT (0.5 mg/mL) was added to each well and plates were incubated for 4 h more in the same conditions.
To dissolve precipitated formazan crystals, a mixture of DMSO and isopropanol (in a 1:1 ratio, v/v) was used. For the spectrophotometric survey, we used MultiscanGo from Thermo Scientific with the wavelength value set at 570 nm to measure absorbance.
Cell viability was determined as the percentage of MTT reduction in the treated cells compared to the control group (unexposed cells). The relative MTT level, represented as a percentage, was calculated using the formula [A]/[B] × 100, where [A] stands for the absorbance of the treated cell sample and [B] for the absorbance of unexposed to studied compounds sample (control group). […] To calculate IC50 values (concentration at which 50% of cell viability is inhibited), we used GraphPad Prism 8.0.1 software.

[3] = test system: Bacillus cereus ATCC 10876; experiment: Broth microdilution MIC / MBC; conditions: ATCC10876, B. cereus ATCC 10876
Protocol: The microdilution method was used to determine the MIC values of newly synthesized compounds. The antimicrobial activity of the thiosemicarbazides series was tested on ten reference bacterial strains purchased from the American Type Culture Collection (ATCC). Seven Gram-positive reference strains (S. aureus ATCC 29213, S. aureus ATCC 43300, S. aureus ATCC 6538, S. aureus ATCC 25923, S. epidermidis ATCC 12228, M. luteus ATCC 10240, and B. cereus ATCC 10876) and three Gram-negative reference bacteria (K. pneumoniae ATCC 13883, E. coli ATCC 25922, S. typhimurium ATCC 14028) were used. These bacterial strains are representatives of microorganisms that can cause the most common opportunistic infections among humans. The bacteria were grown on Mueller–Hinton agar (MHA) plates before examination. To perform the assay, all bacteria were placed in sterile saline (0.85% NaCl) to obtain a suspension of the optical density of the 0.5 McFarland standard (1.50 × 10^8 colony-forming units (CFUs)/mL). A solution of the tested compounds was prepared in dimethyl sulfoxide (DMSO) at a concentration of 50 mg/mL as a stock solution.
A 96-well microtiter plate and microbroth two-fold dilution method was used to determine the minimum inhibitory concentration (MIC) according to the EUCAST (European Committee on Antimicrobial Susceptibility Testing) reference recommendation. The solutions were then diluted with Mueller–Hinton broth (MHB, Biomaxima, Lublin, Poland) medium to obtain a solution with a basic concentration of 1000 µg/mL. Then, using the two-fold dilution method with MHB, the tested compounds were introduced into the wells of the microplate to provide a final concentration in the range of 0.49 to 1000 µg/mL. Then, 2 μL of bacterial inoculum with a density of 0.5 McFarland standard was added into each well. Each well was filled with a total volume of 100 μL. Then, microtiter plates were incubated for 18 ± 2 h at 35 °C. After incubation, the growth of bacteria was monitored by a Biotek ELx800 (Biokom, Janki, Poland) spectrophotometer at 600 nm (OD600). The MIC assays were performed in triplicate.
A negative control with MHB and without tested compounds was used. Clinically used anti-bacterial agents, cefuroxime and vancomycin, were included as positive controls for the purpose of comparison in a concentration range from 0.007 to 15.625 µg/mL.
The in vitro antimicrobial activity of the tested compounds was determined by the MIC, which was defined as the lowest concentration of the compound tested at which no visible growth of the test bacteria was observed. The MBC (the minimum bactericidal concentration) is defined as the lowest concentration of antimicrobial agent resulting in reduction in the viability of the initial bacterial inoculum by ≥99.9% on the plate. Generally, an MBC/MIC ratio less than 4 is considered bactericidal for an antimicrobial, and an MBC/MIC > 8 is indicative of bacteriostatic activity. For the MBC test, the Mueller–Hinton agar (MHA, Biomaxima, Poland) plate assay was used. MBC was determined after the broth dilution period of an MIC test has been completed. After the MIC detection, 5 µL aliquots from each well were plated on an MHA plate and grown at 35 °C overnight. The MBC values were determined by observing the first clear area on the agar plate that has no observable bacterial growth.

Structure (SMILES) | IC50 [1] [µM] | SI (Selectivity Index) [1] | IC50 [2] [µM] | MBC [3] [µg/mL] | MIC [3] [µg/mL]
O=C(NNC(=S)Nc1cccc(Cl)c1)c1cccc(C(F)(F)F)c1 [Compound 3a, 4-(3-Chlorophenyl)-1-(3-trifluoromethylbenzoyl)thiosemicarbazide] | 69 ± 12.6 | 0.59 | 40.5 ± 3.83 | 15.6 (≈ 41.8 µM) | 1.95 (≈ 5.22 µM)
COc1cccc(NC(=S)NNC(=O)c2cccc(C(F)(F)F)c2)c1 [Compound 3b, 1-(3-Trifluoromethylbenzoyl)-4-(3-methoxyphenyl)thiosemicarbazide] | > 100 | 1 | > 100 | – | > 1000
FC(F)(F)c1cccc(-c2n[nH]c(=S)n2-c2cccc(Cl)c2)c1 [Compound 4, 4-(3-Chlorophenyl)-5-(3-trifluoromethylphenyl)-2,4-dihydro-3H-1,2,4-triazole-3-thione] | > 100 | 1 | > 100 | – | > 1000
O=C(NNC(=S)Nc1ccccc1)c1cccc(C(F)(F)F)c1 [Compound 3f, 1-(3-Trifluoromethylbenzoyl)-4-(phenyl)thiosemicarbazide] | > 100 | 1 | > 100 | – | > 1000
O=C(NNC(=S)Nc1cccc(F)c1)c1cccc(C(F)(F)F)c1 [Compound 3e, 1-(3-Trifluoromethylbenzoyl)-4-(3-fluorophenyl)thiosemicarbazide] | 89.9 ± 14.6 | – | > 100 | > 1000 | 7.81 (≈ 21.9 µM)
CCCCNC(=S)NNC(=O)c1cccc(C(F)(F)F)c1 [Compound 3c, 4-Butyl-1-(3-trifluoromethylbenzoyl)thiosemicarbazide] | > 100 | 1 | > 100 | – | > 1000
Cc1cccc(NC(=S)NNC(=O)c2cccc(C(F)(F)F)c2)c1 [Compound 3d, 1-(3-Trifluoromethylbenzoyl)-4-(3-methylphenyl)thiosemicarbazide] | > 100 | 0.69 | 69.1 ± 5.45 | – | > 1000
